Test results as given in patent publication EP0445062A1, “4(1H)Quinolone derivatives” (LABORATORIOS ALMIRALL SA, priority 1990, dated 1991).

Columns and labels:
[1] = J. Het. Chem. 23, 1801 (1986); cited from earlier work
[2] = Chemical Abstracts Vol. 71, 113122 a (1969); cited from earlier work
[3] = test system: Guinea-pig isolated right ventricular strips; assay: Guinea-pig isolated right ventricular strips, increase in developed tension; set-up: species or system guinea-pigs; conditions: Cavia porcellus, stimulated at 1 Hz; for activation at 1 µM: percentage increase in developed tension at 10^-6M, read-out: VENTRICULAR STRIP % (10-6M); for activation at 10 µM: percentage increase in developed tension at 10^-5 M, read-out: VENTRICULAR STRIP % at 10-5 M
Protocol: Guinea-pig isolated right ventricular strips
Male guinea-pigs of weight 400-500 g were killed, their hearts were removed and 2 ventricular preparations (ca 1 cm x 1 mm) cut from the right bide. There were then mounted in organ baths containing modified Krebs-Henseleit solution at 37°C and continually aereated with […]. The preparations were placed under 1 g resting tension and electrically stimulated to contract at 1 Hz whilst force of contraction was measured using an isometric force transducer (Gristwood and Owen, Br.J.Pharmacol. (1985),87,91P). Preparations were equilibrated for 60 min during which they were washed every 15 min with fresh buffer. Flosequinan and test compounds were added to the organ baths from 10^-6 to 10^-4 M concentrations and responses measured as percentage increases in developed tension.

[4] = test system: Conscious renal hypertensive beagle dogs; assay: Conscious renal hypertensive beagle dogs, fall in mean blood pressure after oral dosing; type: in vivo; conditions: oral by gavage; for CONSC.HYPERT. DOG AUC (0-4h) at mg/kg po: dose not given; for CONSC.HYPERT. DOG AUC (0-4h) (1 mg/kg): 1 mg/kg po
Protocol: Conscious renal hypertensive beagle dogs
Male beagle dogs were made hypertensive by the method of Page (J.Amer.Med.Assoc.(1939),113,2046). Two months later, these animals were prepared with exteriorized carotid loops (Gristwood et al., Br.J.Pharmacol. (1988),93,893) three weeks before using for experimentation. Animals were fasted 17 hours before administration of flosequinan or test compounds orally. Animals were then placed in restraints and allowed to settle for 1 hour. Mean blood pressure (MBP) was measured by puncturing the carotid loop with a 18G needle attached to a pressure transducer. Drugs (suspended in 1% methylcellulose + 0.05% Tween 80) were given orally by gavage at different doses, and mean blood pressure was measured over 4 hours using a polygraph. Drug responses were measured by calculating the area under the curve of percentage fall in mean blood pressure and time (units= % fall in MBP x hours) (Allen et al., J.Clin.Pharmacol.(1982),1S-23S).

anaesthetized rats = assay: Vasodilator activity in anaesthetized rats (fall in mean blood pressure); type: in vivo, Wistar rats; conditions: Rattus norvegicus, iv; dose producing 30% fall in mean blood pressure; i.v. bolus injection; read-out: MAN BP IN THE ANAESTH. RAT ED30
Protocol: Vasodilator activity in anaesthetized rats
Male Wistar rats of weight range 300-400 g were anaesthetized with pentobarbital (60 mg/kg i.p.). The trachea was canulated to permit artificial respiration. A carotid artery and a jugular vein were cannulated to permit recording of mean arterial blood pressure and i.v. administration of drugs respectively.
Following a period of stabilisation (20 min), flosequinan or test drugs were administered by bolus injection and falls in mean blood pressure recorded. Responses were measured as the percentage fall in blood pressure over control, calculating the dose that produced an effect of 30% (ED₃₀).

male Swiss mice = assay: Acute toxicity in mice; type: in vivo; conditions: intraperitoneal, deaths after 48 hours, doses up to 300 mg/kg
Protocol: Acute toxicity of each compound was determined in groups of 5 male Swiss mice per dose. Administration of flosequinan and test compounds was made by the intraperitoneal route up the dose of 300 mg/kg. After 48 hours the number of deaths was noted and the dose producing 100% of deaths (LD₁₀₀) was calculated.

[5] = test system: Guinea-pig isolated tracheal rings; assay: Guinea-pig isolated tracheal rings (spontaneous tone), relaxation; set-up: species or system guinea-pigs; conditions: Cavia porcellus, concentration producing 50% relaxation, isoprenaline 10^-6 M response = 100%, read-out: TRACHEAL RING EC50
Protocol: Guinea-pig isolated tracheal rings (spontaneaus tone)
Male guinea-pigs (400-500 g) were killed, and their tracheae were removed and cut into pairs of rings. The rings were then mounted in organ baths containing Krebs-Henseleit solution at 37°C and oxygenated with […] under 1 g resting tension (Allen et al., Br.J.Pharmacol.(1986),89,395). After a 1 hour stabilization period, responses to isoprenaline 10⁻⁶ M were obtained. Tissues were then washed and after a period for restabilization (20 min) the effects of test drugs and flosequinan were investigated by adding cumulative concentrations of these to the baths.
Responses were measured as the percentage of the relaxation response to isoprenaline 10⁻⁶ M. The concentration producing a 50% relaxation taking isoprenaline responses as 100% (EC₅₀) was calculated.

SMILES | antibacterial activity [1] | pharmacological activities [2] | activation at 1 µM [3] [%] | CONSC.HYPERT. DOG AUC (0-4h) at mg/kg po [4] [% fall in MBP x hours] | ED30 (anaesthetized rats) [mg/kg] | LD100 IN MICE (male Swiss mice) [mg/kg ip] | EC50 [5] [µM] | activation at 10 µM [3] [%] | CONSC.HYPERT. DOG AUC (0-4h) (1 mg/kg) [4] | activation at 100 µM ([3]; percentage increase in developed tension at 10^-4M, read-out: VENTRICULAR STRIP % (10-4M)) [%]
CCn1cc(NS(C)(=O)=O)c(=O)c2cc(F)c(Cl)cc21 [A] | does not exhibit any interesting antibacterial activity |  |  |  |  |  |  |  |  | 
Cn1cc(N)c(=O)c2ccccc21 [1-methyl-3-amino-4(1H)quinolone] |  | no appreciable pharmacological activities |  |  |  |  |  |  |  | 
Cn1cc(NS(C)(=O)=O)c(=O)c2ccc(Cl)cc21 [Compound 4, 1-methyl-3-methylsulfonylamino-7-chloro-4(1H)quinolone] |  |  | 55 | 68 | 0.01 | >300 | 0.5 |  |  | 
Cn1cc(NS(C)(=O)=O)c(=O)c2ccccc21 [Compound 1, 1-methyl-3-methylsulfonamido-4(1H) quinolone] |  |  |  |  | 0.02 | >300 | 0.24 | 82 | 54 (1 mg/kg) % fall in MBP x hours | 
COc1ccc2c(c1)c(=O)c(NS(C)(=O)=O)cn2C [Compound 11] |  |  |  |  | 0.05 | >300 | 1.6 | 52 |  | 
Cn1cc(NS(C)(=O)=O)c(=O)c2ccc(F)cc21 [Compound 6, 1-methyl-3-methylsulfonylamino-7-fluoro-4(1H)quinolone] |  |  |  | 65 | 0.01 | >300 | 0.36 | 86 |  | 
Cn1cc(NS(C)(=O)=O)c(=O)c2cc(F)ccc21 [Compound 3, 1-methyl-3-methylsulfonylamino-6-fluoro-4(1H)quinolone] |  |  |  |  | 0.06 | >300 | 0.6 | 53 | 51 (1 mg/kg) % fall in MBP x hours | 
Cn1cc([S+](C)[O-])c(=O)c2ccc(F)cc21 (centres unmarked) [FLOSEQUINAN, 7-fluoro-1-methyl-3-methylsulfinyl-4(1H)quinolone, reference compound] |  |  |  | 41 | 0.2 | 300 | 3 |  |  | 75
Cn1cc(NS(C)(=O)=O)c(=O)c2ccc(C(F)(F)F)cc21 [Compound 5] |  |  | 35 |  | 0.03 | >300 | 0.42 |  |  | 
